# Experimental data from US20110301142A1, “ANTAGONISTS OF LYSOPHOSPHATIDIC ACID RECEPTORS” (priority 2008, published 2011).
# pIC50: −log10 of the molar value.
# Key:
# human LPA1 = biological target: T1, human LPA1 (Homo sapiens, UniProt Q92633); test: LPA1 calcium flux assay (HLPA1 Ca Flux); type: cell-based; conditions: Human LPA1 expressing CHO cells, stimulated with 10 nM LPA
# T1 construct: the full-length cDNA for human LPA1 was obtained by PCR of the reverse transcription reaction; expressed in transfected cells
# Method in brief: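 CHO cells stably expressing cloned human LPA1, serum-starved overnight and loaded with Calcium 4 dye, were preincubated 30 min at room temperature with compound. Cells were then challenged with 10 nM LPA and intracellular Ca2+ measured; IC50 values came from titration curves.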
# human LPA3 = biological target: T2, human LPA3 (Homo sapiens, UniProt Q9UBY5); test: LPA3 calcium flux assay; type: cell-based; conditions: Human LPA3 expressing CHO cells, stimulated with 10 nM LPA; read-out: HLPA3 Ca Flux IC50
# T2 construct: The full-length cDNA fragment for human LPA3 was obtained by PCR from the vector; expressed in transfected cells; cDNA from the Missouri S&T cDNA Resource Center
# T2 sequence (Q9UBY5 1-353): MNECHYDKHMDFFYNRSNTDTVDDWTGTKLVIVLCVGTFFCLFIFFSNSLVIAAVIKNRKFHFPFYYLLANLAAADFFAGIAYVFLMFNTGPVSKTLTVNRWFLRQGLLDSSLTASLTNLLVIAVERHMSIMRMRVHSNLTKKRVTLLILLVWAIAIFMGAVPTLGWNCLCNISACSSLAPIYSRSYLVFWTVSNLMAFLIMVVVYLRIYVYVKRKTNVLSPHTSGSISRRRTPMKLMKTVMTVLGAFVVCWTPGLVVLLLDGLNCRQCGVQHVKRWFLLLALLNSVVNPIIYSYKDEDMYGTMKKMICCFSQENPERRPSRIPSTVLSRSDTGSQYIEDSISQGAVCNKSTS
# Method: A vector containing the human LPA3 receptor cDNA was obtained from the Missouri S&T cDNA Resource Center (www.cdna.org). The full-length cDNA fragment for human LPA3 was obtained by PCR from the vector. The nucleotide sequence of the cloned human LPA3 was determined by sequencing and confirmed to be identical to the published human LPA3 sequence (NCBI accession number NM 012152). The cDNA was cloned into the pcDNA5/FRT expression plasmid and transfected in CHO cells using lipofectamine 2000 (Invitrogen Corp., USA). Clones stably expressing human LPA3 were selected using hygromycin and identified as cells that show Ca-influx in response to LPA.
# Human LPA1 or LPA3 expressing CHO cells are seeded at 20,000-45,000 cells per well in a 96-well poly-D-lysine coated plate one or two days before the assay. Prior to the assay, the cells are washed once with PBS and then cultured in serum-free media overnight. On the day of the assay, a calcium indicator dye (Calcium 4, Molecular Devices) in assay buffer (HBSS with Ca^2+ and Mg^2+ and containing 20 mM Hepes and 0.3% fatty-acid free human serum albumin) is added to each well and incubation continued for 1 hour at 37° C. 10 μl of test compounds in 2.5% DMSO are added to the cells and incubation continued at room temperature for 30 minutes. Cells are the stimulated by the addition of 10 nM LPA and intracellular Ca^2+ measured using the Flexstation 3 (Molecular Devices). IC50s are determined using Graphpad prism analysis of drug titration curves.
# T1 sequence (Q92633 whole entry): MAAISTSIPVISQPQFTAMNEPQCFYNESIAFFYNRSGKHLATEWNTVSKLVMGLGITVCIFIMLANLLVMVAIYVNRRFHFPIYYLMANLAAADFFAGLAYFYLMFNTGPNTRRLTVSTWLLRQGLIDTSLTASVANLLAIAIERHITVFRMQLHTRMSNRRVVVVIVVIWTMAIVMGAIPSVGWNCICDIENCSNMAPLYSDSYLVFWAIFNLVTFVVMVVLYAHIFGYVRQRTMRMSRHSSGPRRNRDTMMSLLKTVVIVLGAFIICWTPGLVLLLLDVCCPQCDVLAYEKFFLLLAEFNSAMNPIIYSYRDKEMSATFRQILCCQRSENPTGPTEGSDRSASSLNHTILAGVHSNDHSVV
Compound,pIC50 (human LPA1),pIC50 (human LPA3)
"Cc1noc(-c2cccc(-c3cccc(CC(=O)O)c3)c2)c1NC(=O)OC(C)c1ccccc1Cl (centres unmarked) [Compound 1-60, (3′-{4-[1-(2-Chloro-phenyl)-ethoxycarbonylamino]-3-methyl-isoxazol-5-yl}-biphenyl-3-yl)-acetic acid]",4.30 to 6.00,4.30 to 6.00
"Cc1noc(-c2ccc(-c3ccc(C(C)C(=O)O)cc3)cc2)c1NC(=O)OC(C)c1ccccc1Cl (centres unmarked) [Compound 1-71, 2-(4′-{4-[1-(2-Chloro-phenyl)-ethoxycarbonylamino]-3-methyl-isoxazol-5-yl}-biphenyl-4-yl)-propionic acid]",> 6.52,4.30 to 6.00
"Cc1noc(-c2ccc(-c3ccc(C(C)C(=O)O)cc3)cc2)c1NC(=O)OC(C)c1ccccc1F (centres unmarked) [Compound 1-74, 2-(4′-{4-[1-(2-Fluoro-phenyl)-ethoxycarbonylamino]-3-methyl-isoxazol-5-yl}-biphenyl-4-yl)-propionic acid]",> 6.52,4.30 to 6.00
"Cc1noc(-c2ccc(-c3cccc(C(=O)O)c3)cc2)c1NC(=O)OC(C)c1ccccc1Cl (centres unmarked) [Compound 1-76, 4′-{4-[1-(2-Chloro-phenyl)-ethoxycarbonylamino]-3-methyl-isoxazol-5-yl}-biphenyl-3-carboxylic acid]",> 6.52,4.30 to 6.00
"Cc1noc(-c2ccc(-c3ccc(CC(=O)O)cc3)cc2)c1NC(=O)OC(C)c1ccc(Cl)cc1F (centres unmarked) [Compound 1-77, (4′-{4-[1-(4-Chloro-2-fluoro-phenyl)-ethoxycarbonylamino]-3-methyl-isoxazol-5-yl}-biphenyl-4-yl)-acetic acid]",> 6.52,4.30 to 6.00
"Cc1noc(-c2ccc(-c3ccc(CC(=O)O)cc3)cc2)c1NC(=O)O[C@H](C)c1ccccc1F [Compound 1-78, (4′-{4-[(R)-1-(2-Fluoro-phenyl)-ethoxycarbonylamino]-3-methyl-isoxazol-5-yl}-biphenyl-4-yl)-acetic acid]",> 6.52,4.30 to 6.00
"Cc1noc(-c2ccc(COc3ccccc3CC(=O)O)cc2)c1NC(=O)OC(C)c1ccccc1Cl (centres unmarked) [Compound 1-79, [2-(4-{4-[1-(2-Chloro-phenyl)-ethoxycarbonylamino]-3-methyl-isoxazol-5-yl}-benzyloxy)-phenyl]-acetic acid]",> 6.52,4.30 to 6.00
"Cc1noc(-c2ccc(Cc3cccc(CC(=O)O)c3)cc2)c1NC(=O)O[C@H](C)c1ccccc1F [Compound 1-80, [3-(4-{4-[(R)-1-(2-Fluoro-phenyl)-ethoxycarbonylamino]-3-methyl-isoxazol-5-yl}-benzyl)-phenyl]acetic acid]",> 6.52,4.30 to 6.00
"Cc1noc(-c2ccc(Cc3ccc(CC(=O)O)cc3)cc2)c1NC(=O)O[C@H](C)c1ccccc1F [Compound 1-81, [4-(4-{4-[(R)-1-(2-Fluoro-phenyl)-ethoxycarbonylamino]-3-methyl-isoxazol-5-yl}-benzyl)-phenyl]-acetic acid]",> 6.52,4.30 to 6.00
"Cc1noc(-c2ccc(Oc3ccc(CC(=O)O)cc3)cc2)c1NC(=O)O[C@H](C)c1ccccc1F [Compound 1-84, [4-(4-{4-[(R)-1-(2-Fluoro-phenyl)-ethoxycarbonylamino]-3-methyl-isoxazol-5-yl}-phenoxy)-phenyl]-acetic acid]",> 6.52,4.30 to 6.00
"Cc1cc(-c2onc(C)c2NC(=O)O[C@H](C)c2ccccc2F)ccc1-c1ccc(CC(=O)O)cc1 [Compound 1-85, (4′-{4-[(R)-1-(2-Fluoro-phenyl)-ethoxycarbonylamino]-3-methyl-isoxazol-5-yl}-2′-methyl-biphenyl-4-yl)-acetic acid]",> 6.52,4.30 to 6.00
"Cc1noc(-c2ccc(-c3ccc(C(C)(C)C(=O)O)cc3)cc2)c1NC(=O)OC(C)c1ccccc1F (centres unmarked) [Compound 1-86, 2-(4′-{4-[1-(2-Fluoro-phenyl)-ethoxycarbonylamino]-3-methyl-isoxazol-5-yl}-biphenyl-4-yl)-2-methyl-propionic acid]",> 6.52,4.30 to 6.00
"Cc1noc(-c2ccc(-c3ccc(C(C)(C)C(=O)O)cn3)cc2)c1NC(=O)OC(C)c1ccccc1F (centres unmarked) [Compound 1-87, 2-[6-(4-{4-[1-(2-Fluoro-phenyl)-ethoxycarbonylamino]-3-methyl-isoxazol-5-yl}-phenyl)-pyridin-3-yl]-2-methyl-propionic acid]",> 6.52,4.30 to 6.00

# The next lines start with the values.
pIC50 (human LPA1),pIC50 (human LPA3),Compound
> 6.52,4.30 to 6.00,"Cc1noc(-c2ccc(-c3ccc(C(=O)O)nc3)cc2)c1NC(=O)OC(C)c1ccccc1Cl (centres unmarked) [Compound 1-56, 5-(4-{4-[1-(2-Chloro-phenyl)-ethoxycarbonylamino]-3-methyl-isoxazol-5-yl}-phenyl)-pyridine-2-carboxylic acid]"
> 6.52,4.30 to 6.00,"Cc1noc(-c2ccc(-c3ccccc3CC(=O)O)cc2)c1NC(=O)OC(C)c1ccccc1Cl (centres unmarked) [Compound 1-57, (4′-{4-[1-(2-Chloro-phenyl)-ethoxycarbonylamino]-3-methyl-isoxazol-5-yl}-biphenyl-2-yl)-acetic acid]"
> 6.52,4.30 to 6.00,"Cc1noc(-c2ccc(-c3ccc(CC(=O)O)cc3)cc2)c1NC(=O)OC(C)c1ccccc1Cl (centres unmarked) [Compound 1-58, (4′-{4-[1-(2-Chloro-phenyl)-ethoxycarbonylamino]-3-methyl-isoxazol-5-yl}-biphenyl-4-yl)-acetic acid]"
> 6.52,4.30 to 6.00,"Cc1noc(-c2ccc(-c3cccc(CC(=O)O)c3)cc2)c1NC(=O)OC(C)c1ccccc1Cl (centres unmarked) [Compound 1-59, (4′-{4-[1-(2-Chloro-phenyl)-ethoxycarbonylamino]-3-methyl-isoxazol-5-yl}-biphenyl-3-yl)-acetic acid]"
> 6.52,4.30 to 6.00,"Cc1noc(-c2ccc(-c3ccc(CC(=O)O)cn3)cc2)c1NC(=O)OC(C)c1ccccc1Cl (centres unmarked) [Compound 1-61, [6-(4-{4-[1-(2-Chloro-phenyl)-ethoxycarbonylamino]-3-methyl-isoxazol-5-yl}-phenyl)-pyridin-3-yl]-acetic acid]"
> 6.52,4.30 to 6.00,"Cc1noc(-c2ccc(-c3ccc(CCC(=O)O)cc3)cc2)c1NC(=O)OC(C)c1ccccc1Cl (centres unmarked) [Compound 1-62, 3-(4′-{4-[1-(2-Chloro-phenyl)-ethoxycarbonylamino]-3-methyl-isoxazol-5-yl}-biphenyl-4-yl)-propionic acid]"
> 6.52,4.30 to 6.00,"Cc1noc(-c2ccc(-c3cncc(CC(=O)O)c3)cc2)c1NC(=O)OC(C)c1ccccc1Cl (centres unmarked) [Compound 1-63, [5-(4-{4-[1-(2-Chloro-phenyl)-ethoxycarbonylamino]-3-methyl-isoxazol-5-yl}-phenyl)-pyridin-3-yl]-acetic acid]"
> 6.52,4.30 to 6.00,"Cc1noc(-c2ccc(-c3cc(CC(=O)O)ccc3F)cc2)c1NC(=O)OC(C)c1ccccc1Cl (centres unmarked) [Compound 1-64, (4′-{4-[1-(2-Chloro-phenyl)-ethoxycarbonylamino]-3-methyl-isoxazol-5-yl}-6-fluoro-biphenyl-3-yl)-acetic acid]"
> 6.52,4.30 to 6.00,"Cc1noc(-c2ccc(-c3ccc(F)c(CC(=O)O)c3)cc2)c1NC(=O)OC(C)c1ccccc1Cl (centres unmarked) [Compound 1-65, (4′-{4-[1-(2-Chloro-phenyl)-ethoxycarbonylamino]-3-methyl-isoxazol-5-yl}-4-fluoro-biphenyl-3-yl)-acetic acid]"
> 6.52,4.30 to 6.00,"Cc1noc(-c2ccc(C3=CCC(C(=O)O)CC3)cc2)c1NC(=O)OC(C)c1ccccc1Cl (centres unmarked) [Compound 1-66, 4-(4-{4-[1-(2-Chloro-phenyl)-ethoxycarbonylamino]-3-methyl-isoxazol-5-yl}-phenyl)-cyclohex-3-enecarboxylic acid]"
> 6.52,4.30 to 6.00,"Cc1noc(-c2ccc(C3CCC(C(=O)O)CC3)cc2)c1NC(=O)OC(C)c1ccccc1Cl (centres unmarked) [Compound 1-67, 4-(4-{4-[1-(2-Chloro-phenyl)-ethoxycarbonylamino]-3-methyl-isoxazol-5-yl}-phenyl)-cyclohexanecarboxylic acid]"
> 6.52,4.30 to 6.00,"COC(=O)Cc1ccc(-c2ccc(-c3onc(C)c3NC(=O)OC(C)c3ccccc3Cl)cc2)cc1 (centres unmarked) [Compound 1-69, (4′-{4-[1-(2-Chloro-phenyl)-ethoxycarbonylamino]-3-methyl-isoxazol-5-yl}-biphenyl-4-yl)-acetic acid methyl ester]"
